The test system of the experiment is Plasmodium falciparum. The experiment in a line: GSK_TCMDC: Inhibition of Plasmodium falciparum 3D7 in whole erythrocytes, using parasite LDH activity as an index of growth. Format: functional, organism-based. Particulars: Plasmodium falciparum, 3D7.

`COc1ccc(NC(=O)/C=C/c2ccc(Cl)c(Cl)c2)cc1N1CCN(C)CC1` registered an XC50 of 980 nM.
With `CN(C)Cc1cccc(-c2cc3c(-c4cnn(C)c4)c(Cl)cnc3[nH]2)c1` the figure was 905 nM; with `O=C(Nc1cc(F)cc(F)c1)N[C@H]1CCN(CCCCCNC(=O)C2CC2c2ccc(Cl)c(Cl)c2)C1` (some centres undefined), 1080 nM; with `COc1ccc2nc3cc(Cl)ccc3c(NCCc3ccccc3)c2c1`, 950 nM.
With `COc1cc2nc(N3CCC(CNC(=O)c4ccc(-c5ccc(-c6noc(C)n6)cc5)cc4)CC3)nc(N)c2cc1OC` the figure was 139 nM; with `O=C(Nc1cc(Cl)cc(Cl)c1)N[C@H]1CCN(CCCCCNC(=O)C2CC2c2ccc(Cl)c(Cl)c2)C1` (some centres undefined), 856 nM.
With `c1cc(CNCCc2ccncc2)cc(-c2cccc(-c3nc4ccccc4[nH]3)c2)c1` the figure was 146 nM; with `CC1CCCCN1S(=O)(=O)c1ccc(NC(=O)c2cc(-c3ccccc3O)n[nH]2)cc1` (centres undefined), 756 nM.
Consider `Cc1ccc(NC(=O)c2ccc3ncccc3c2)cc1OC1CCN(Cc2ccco2)C1` (centres undefined), for which the XC50 came to 1250 nM.
With `Cc1cc(N[C@@H](Cc2ccccc2)C(=O)NCCOc2ccccc2)nc(NCCc2cccs2)n1` the figure was 997 nM; with `Cc1nnsc1C(=O)Nc1ccc(-c2cccc(-c3nc4cc(F)ccc4[nH]3)c2)cc1`, 766 nM.
With `CCOc1ccc(C(C)NC(=O)Nc2ccccc2)cc1OCC` (centres undefined) the figure was 901 nM; with `Fc1ccc(-c2cncc(Nc3ccncc3)n2)cc1`, 1320 nM; with `CN(C(=O)c1cc2c(-c3cncnc3)cccc2[nH]1)c1ccccc1`, 628 nM.
The value for `Cc1cccc2nc(-c3ccc(-c4cccc(NCc5cn6cccnc6n5)c4)cc3)[nH]c12` was 787 nM; that for `Cc1cccc2nc(-c3cccc(-c4ccc(C(=O)N5CCCCC5C(C)O)cc4)c3)[nH]c12` (centres undefined) was 371 nM; that for `CCCC(C)NC(=O)[C@H](CC1CCCCC1)NC(=O)c1ccc(O)c(-c2ccc(OC)cc2)c1` (some centres undefined) was 1130 nM.
For `Cc1c(CCc2cccc(F)c2F)[nH]c2ccccc2c1=O`, the XC50 came to 822 nM.
For `COc1ccc(OC)c(Cc2cnc3nc(N)[nH]c(=O)c3c2C)c1`, the XC50 came out at 357 nM.
`CCOC(=O)C1CCN(CCOc2cc(NC(=O)/C=C/c3ccccc3Cl)ccc2Br)CC1` returned an XC50 of 991 nM.
With `O=C(Nc1nc2cc(S(=O)(=O)NCCCN3CCOCC3)ccc2n1CCCn1ccnc1)c1ccc(Cl)cc1` the figure was 925 nM; with `CCOc1cccc(C2c3c(oc4ccccc4c3=O)C(=O)N2CCN(CC)CC)c1` (centres undefined), 746 nM.
The value for `Cc1cc(C(=O)CN2C(=O)NC(C)(c3ccc4ccccc4c3)C2=O)c(C)n1Cc1ccco1` (centres undefined) was 661 nM; that for `O=C(N[C@@H](Cc1ccccc1)[C@H](O)CNC1CCCc2ccccc21)c1cc(C2CCCC2)cc(N2CCCC2=O)c1` (some centres undefined) was 162 nM.
The value for `CCOc1ccc2[nH]c(C)cc(=NN=Cc3ccccc3Cl)c2c1` was 191 nM; that for `CC1(C)N=C(N)N=C(N)N1c1ccc(Oc2ccc(Cl)cc2)c(Cl)c1` was 78.9 nM.
`CN1CCN(c2ccc(Nc3nccc(-c4cnn5ncccc45)n3)cc2Cl)CC1` displayed an XC50 of 833 nM.
Compound `CCN(CC)CCN(Cc1ccc(-c2ccc(C(F)(F)F)cc2)cc1)C(=O)Cn1c(CCc2cccc(F)c2F)nc(=O)c2cccnc21` gave an XC50 of 728 nM.
With `Cc1ccc(-c2nc(NC(=O)Nc3ccc(C(F)(F)F)cc3)sc2C)cc1Cl` the figure was 659 nM; with `COCCn1c(SC(C)C(=O)Nc2cc(C(F)(F)F)ccc2Cl)nc2ccccc2c1=O` (centres undefined), 629 nM.
With `O=C(NCCNc1ccnc2cc(Cl)ccc12)c1ccccc1F` the figure was 655 nM; with `CCOc1ccc(C(=O)Nc2cc(Br)c3c(c2)CNCC3)cc1Cl`, 1040 nM; with `Cc1nc(-c2ccc(-c3ccc(C(=O)Nc4ccc(I)c(OCC5CCCN5C)c4)cc3)c(C)c2)no1` (centres undefined), 33 nM.
For the compound `COc1ccc2nccc([C@@H](O)CN3CCC(NC(=O)c4ccc5cc[nH]c5c4)CC3)c2c1`, the XC50 was 969 nM.
The value for `N#Cc1c(-c2ccccc2)cn2c1[nH]c(=O)c1ccccc12` was 109 nM; that for `S=C(NCCN1CCOCC1)Nc1ccccc1` was 1020 nM.
With `CCOc1ccc(Nc2ccc3nonc3c2S(=O)(=O)Nc2ccc(OCC)cc2)cc1` the figure was 505 nM.
As to `CN(C)CCN(C)Cc1cccc(-c2ccc3c(Nc4cc(O)c(Cl)cc4F)ccnc3c2)c1`, the XC50 was determined as 237 nM.
The value for `Cc1cnc(Nc2ccccc2)nc1N[C@@H](CCCN)C(=O)Nc1ccccc1` was 807 nM.
For the compound `COc1ccc2c(=NN=Cc3ccccc3)cc(C)[nH]c2c1`, the XC50 was determined as 846 nM.
With `CC(=O)Nc1ccc(CCNC(C)Cc2ccc(C(=O)Nc3ccc(CC(C)NCCc4cccc(Cl)c4)cc3)cc2)cc1` (centres undefined) the figure was 330 nM.
Take `O=C(Nc1cccc(-c2nn3ncccc3c2-c2ccnc(Nc3cccc(C(F)(F)F)c3)n2)c1)c1c(F)cccc1F`: the XC50 amounted to 648 nM.
Consider `CN(C)CCN(C)Cc1ccc(-c2ccc(NC(=O)c3cccc(Cl)c3)cc2)cc1`, for which the XC50 was 1140 nM.
The value for `COc1cc(NC2=NS(=O)(=O)c3cc(Cl)ccc3N2C)cc(OC)c1OC` was 420 nM; that for `CCN1CCN(c2cc(C)c3cc(NC(=O)c4ccc(Br)o4)ccc3n2)CC1` was 755 nM; that for `Nc1c2c(nc3ccc(NC(=O)Cc4ccccc4)cc13)CCCC2` was 755 nM.
The value for `Oc1ccc(CCNc2nc(NCc3ccc4cc(Cl)ccc4c3)nc(N3CCNCC3)n2)cc1` was 1020 nM; that for `Fc1ccc2[nH]c(-c3cccc(-c4ccc(CN5CCN(c6cnccn6)CC5)cc4)c3)nc2c1` was 893 nM.
The compound `Cc1cc(F)ccc1Nc1nc(N(C)c2ccccc2)c2cccc(OCCO)c2n1` yielded an XC50 of 795 nM.
`Cc1cnc2ccc(NS(=O)(=O)c3ccc4c(Cl)cccc4c3)cc2c1N1CCNCC1` gave an XC50 of 751 nM.
With `COc1ccccc1C1CCN(C2CCC(NC(=O)/C=C/c3cccc(Cl)c3F)CC2)CC1` (centres undefined) the figure was 1290 nM; with `COc1cc(C(=O)NCc2nn(CCN3CCC(N4CCCC4)CC3)cc2-c2ccc(Cl)c(Cl)c2)cc(OC)c1OC`, 774 nM; with `O=C(Nc1cccc(-c2cccc(CN3CCCC3)c2)c1)c1cccc(Cl)c1`, 1180 nM.
The value for `O=C(NC1CC1)c1cnc(N2CCC(OCc3ccccc3)CC2)c(Cl)c1` was 1400 nM.
With `O=C(Nc1ccc(F)c(Cl)c1)c1cc([N+](=O)[O-])cc2cn[nH]c12` the figure was 315 nM.
Turning to `Oc1ccccc1CN1CCC(CCOC(c2ccccc2)c2ccc(Cl)cc2)CC1` (centres undefined), the XC50 stood at 743 nM.
`CC(=O)Nc1nc(C(=O)Nc2cccc(-c3ccc(-c4nc5cccc(C)c5[nH]4)cc3)c2)cs1` had an XC50 of 232 nM.
Compound `CC(C)NCc1ccc(-c2cccc(NC(=O)c3cccc(Cl)c3)c2)cc1` showed an XC50 of 728 nM.
The value for `Cc1cc(NC2CCCC2)nc(Nc2ccccc2C)n1` was 1350 nM; that for `Oc1ccc(-c2ccccc2)cc1CNC1CCCCC1` was 497 nM.
The value for `OCC1CCN(Cc2ccc(-c3cccc(-c4nc5cc(C(F)(F)F)ccc5[nH]4)c3)cc2)CC1` was 483 nM; that for `CCc1ccc(S(=O)(=O)Nc2cccc(CCN3CCC(N4CCCCC4)CC3)c2)cc1` was 898 nM; that for `CCOC(=O)c1cn(CC)c2cc(N3CCCCC3)c(F)cc2c1=O` was 125 nM.
With `CC(C)CCNCC(O)Cn1c2ccc(Cl)cc2c2cc(Cl)ccc21` (centres undefined) the figure was 447 nM.

The values above are taken from ChEMBL document CHEMBL1157539, “Thousands of chemical starting points for antimalarial lead identification” (Nature, 2010).
